Drawing on PubChem BioAssay AID179 (DTP/NCI, 2004), this text covers EC50, IC50 and outcome for 74 molecules.

The structures appear in SMILES notation. Calls of active or inactive are those of the source.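 How the source made its calls: active means compounds giving half or more protection of infected cells from virus-caused growth loss, again on retest; inactive means the rest.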

The subject of this assay is CEM cells HIV-1 protection, formazan growth assay. The assay can be described thus: NCI AIDS Antiviral Assay. Particulars: for IC50: measured here: growth of uninfected CEM cells. Summed up:
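Human CEM cells, uninfected and HIV-1-infected, received five drug concentrations, and growth was read by soluble formazan assay. Compounds giving at least 50% protection were retested; reproducible 100% protection defined confirmed active.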

Usually EC50 stands for the midpoint of the concentration-response curve. As a reminder, the IC50 is the point on the concentration scale where inhibition reaches its midpoint. A higher IC50 goes with weaker potency. With `Cc1cccc2[nH]c3cc(O)cc(O)c3c(=O)c12`, the EC50 was over 200 µM and the 50% inhibitory concentration (IC50) was 10.5 µM.

Regarding `CCOC(=O)c1cc(C2CCN(CC(C)CC)C2=S)c(-c2cc(C)no2)[nH]1` (stereo not given), the EC50 was over 200 µM and the IC50 was over 200 µM.

Consider `COc1nn(Cc2ccccc2F)c2ccc([N+](=O)[O-])cc12`, for which the EC50 is over 200 µM and the half-inhibitory concentration (IC50) worked out at 50.1 µM.

Consider `CCOC(=O)NN1C(=O)c2cccc3c([N+](=O)[O-])ccc(c23)C1=O`, for which the EC50 was over 2 µM and the IC50 turned out to be 0.224 µM.

For `NC(=O)C1=CN(Cc2ccc(F)cc2)c2ccccc2C1S(=O)(=O)O` (stereo not given), the result was inactive and the 50% inhibitory concentration (IC50) is 245 µM.

With `NC(=O)c1cn(C2OC(CO)C(O)C2O)c(=O)[nH]c1=O` (stereo not given), the EC50 was over 871 µM and the IC50 was over 871 µM.

On to `CCOC(=O)c1cc(C2=CCNC2=O)c(-c2cc(C)no2)[nH]1`, for which the EC50 is over 200 µM and the IC50 stood at 33.1 µM.

Turning to `Cc1ccc(Nc2[nH]c(=O)[nH]c(=O)c2N=O)cc1`, the EC50 is over 200 µM and the IC50 was over 200 µM.

As to `O=c1nc2n(c3nsnc13)CCO2`, the EC50 is over 132 µM and the IC50 is over 132 µM.

As for `NC(N)=Nc1nn[nH]n1`, the EC50 is over 200 µM and the half-inhibitory concentration (IC50) was over 200 µM.

With `CN1C(=O)C(O)CC1c1ccccc1C(F)(F)F` (stereo not given), the EC50 is over 200 µM and the IC50 was over 200 µM.

As for `N#CC12C(=O)N3C(=NC(c4ccccc4)NC3c3ccccc3)C1(C#N)C(c1ccccc1)NC1=C2CCC1` (stereo not given), the EC50 is over 200 µM and the IC50 is over 200 µM.

Regarding `O=C(NC1C2CC3CC(C2)CC1C3)c1cc(/C=C/c2ccccc2)[nH]c(=S)n1` (stereo not given), the EC50 is over 34.7 µM and the concentration for half-maximal inhibition (IC50) is over 34.7 µM.

Regarding `CC(=N)N(C)O`, the EC50 was over 2000 µM and the 50% inhibitory concentration (IC50) was over 2000 µM.

For the molecule `CC(C)(C)[Si](C)(C)OC[C@H](CO)NC(=O)OCc1ccccc1`, the EC50 was over 200 µM and the IC50 was 38.9 µM.

As to `CO/C(=N\N=C\c1ccccc1F)c1ccncc1`, the EC50 was over 141 µM and the IC50 is over 141 µM.

Turning to `COc1ccc(C2(CC(C)C)CCN(S(=O)(=O)c3ccc(C)cc3)C2)cc1OC` (stereo not given), the EC50 was over 178 µM and the IC50 worked out at 20 µM.

In the case of `CCOc1nc(-c2ccccc2)cc(-c2ccc(N3CCOCC3)cc2)c1C#N`, the EC50 is over 200 µM and the IC50 was 112 µM.

For `NCCCCCC(=O)O`, the EC50 was over 200 µM and the IC50 is over 200 µM.

As for `CCN(CC)c1cccc2c1C1(O)CCC3(CC21)OCCCCO3` (stereo not given), the EC50 was over 200 µM and the IC50 was determined as 97.7 µM.

Take `CC(=O)c1c(-c2ccco2)c(C#N)c(=S)n(C2OC(CO)C(O)C(O)C2O)c1-c1ccccc1` (stereo not given): the EC50 is over 200 µM and the 50% inhibitory concentration (IC50) is 75.9 µM.

Take `COCOc1ccc(C(=O)Oc2cccc3c2OC(C)(C)O3)c(OCOC)c1`: the EC50 was over 200 µM and the IC50 was found to be 35.5 µM.

Regarding `N#CC1(C#N)C(C#N)(C#N)C12CCCCC2Cl` (stereo not given), the EC50 was over 20 µM and the IC50 is over 20 µM.

For the molecule `O/N=C1\CCc2nonc2\C1=N/Nc1ccccc1`, the EC50 is over 200 µM and the IC50 was over 200 µM.

As for `O=C(CSc1nc(-c2ccccc2)c(-c2ccccc2)[nH]1)N/N=C/c1ccc(O)cc1`, the EC50 was over 43.7 µM and the IC50 is 9.77 µM.

With `CC(C)CCc1n[nH]c(=O)n1/N=C\c1ccccc1`, the EC50 was over 200 µM and the IC50 worked out at 66.1 µM.

Take `CC(C)=C[C@@H]1C[C@H](n2cc(C)c(=O)[nH]c2=O)ON1CCO`: the EC50 is over 200 µM and the 50% inhibitory concentration (IC50) was over 200 µM.

In the case of `N#CNC(=NCc1ccccc1)NCCc1c[nH]c2ccccc12`, the EC50 was 145 µM and the IC50 was 162 µM.

In the case of `C=CC1=C(C)C2=NC1=CC1=NC(=CC3=C(C)C4=C(O)C(C(=O)OC)C(=C5NC(=C2)C(C)C5CCC(=O)OC/C=C(\C)CCCC(C)CCCC(C)CCCC(C)C)C4=N3)C(CC)=C1C` (stereo not given), the EC50 is over 100 µM and the IC50 was determined as 2.14 µM.

With `CCCCCC(=O)NC(=S)Nc1nn[nH]n1`, the EC50 is over 200 µM and the IC50 was over 200 µM.

Consider `COc1cc(/C=C2\C(=O)N(c3cccc(NC(C)=O)c3)C(c3ccccc3)S2(=O)=O)cc(OC)c1OC` (stereo not given), for which the EC50 was over 200 µM and the IC50 came to 87.1 µM.

With `O=C1c2cscc2C(=O)c2c(Cl)sc(Cl)c21`, the EC50 is over 0.2 µM and the IC50 was over 0.2 µM.

For the molecule `CCCCOCn1c(=O)[nH]c(=O)c2cc(Br)ccc21`, the EC50 is over 200 µM and the concentration for half-maximal inhibition (IC50) came to 93.3 µM.

With `O=C(CN1CCN(Cc2ccccc2)CC1)N1CCCn2c1nc1ccccc1c2=O`, the EC50 was over 200 µM and the IC50 was over 200 µM.

With `CC=CCOc1cc(NC(=S)OC(C)C)ccc1Cl` (mixture of isomers), the half-maximal effective concentration (EC50) was 0.126 µM and the IC50 was found to be 24 µM.

As to `COC(=O)C1=C(C(=O)OC)N2c3ccccc3-n3c(-c4ccccc4)cc(OC)c3C2(C)C(C(=O)OC)=C1C(=O)OC` (stereo not given), the EC50 was over 53.7 µM and the IC50 was over 53.7 µM.

Consider `CCOC(=O)C(C(=O)OCC)=C1SC(=Nc2ccccc2)C(=Nc2ccccc2)N1c1ccccc1`, for which the EC50 was over 200 µM and the IC50 was found to be 70.8 µM.

Regarding `CC1(C)O[C@@H]2COC(=O)[C@@H]2O1`, the EC50 was over 200 µM and the half-inhibitory concentration (IC50) is over 200 µM.

For the molecule `CN1N=C(c2ccncc2)OC1c1ccc(Cl)cc1Cl` (stereo not given), the EC50 was over 200 µM and the IC50 was 85.1 µM.

In the case of `O=C(O)[C@H](CSSC[C@@H](C(=O)O)N1C(=O)c2ccccc2C1=O)N1C(=O)c2ccccc2C1=O`, the EC50 is over 200 µM and the IC50 is over 200 µM.

For the molecule `CCOC(=O)c1cn2c(n1)sc1cc(OC)ccc12`, the EC50 is over 20 µM and the IC50 is 1.7 µM.

As for `CCC1(CC)SCc2nc3ccccc3n21`, the EC50 is over 200 µM and the concentration for half-maximal inhibition (IC50) amounted to 63.1 µM.

On to `O=C1NC(N2CCOCC2)=N/C1=C\c1ccccc1O`, for which the EC50 is over 200 µM and the IC50 is over 200 µM.

For the molecule `Cc1ccc(-c2n[nH]c(=O)[nH]2)cc1`, the EC50 is over 200 µM and the IC50 is over 200 µM.

As to `N#CC1(c2ccccc2)C(c2ccccc2)CC(O)(c2ccccc2)C(C(=O)c2ccccc2)C1c1ccccc1` (stereo not given), the EC50 was over 100 µM and the IC50 turned out to be 15.1 µM.

Turning to `CN1C=c2c3c(ccc2=C2C=CC4C=C5OCOC5=CC4=C21)OCO3` (stereo not given), the EC50 is over 20 µM and the half-inhibitory concentration (IC50) stood at 0.759 µM.

Turning to `COc1cc(/C=C/C(=N\NC(=S)NN)c2sc(NNC(C)=O)nc2C)ccc1O`, the EC50 is over 12 µM and the IC50 is over 12 µM.

In the case of `COc1ccc(NC(=O)C2=C(SC)C(=O)N=C2N)cc1`, the EC50 was over 100 µM and the IC50 was over 100 µM.

Take `c1cc2c(cnc3cscc32)s1`: the outcome was inactive.

Consider `C[C@H]1N(O)CC2OC(n3ccc(=O)[nH]c3=O)C(O)C21O` (mixture of isomers), for which the EC50 is over 200 µM and the IC50 was over 200 µM.

In the case of `O=C1CSCc2sccc21`, the EC50 was over 200 µM and the IC50 was over 200 µM.

For `COC(=O)/C(C#N)=C1\N=NNN1c1ccc(OC)cc1`, the result was inactive.

As to `CC1(O)C=CC2CCC1C2O` (stereo not given), the EC50 is over 1620 µM and the IC50 is over 1620 µM.

For the molecule `CC(C)(C)OC(=O)Cn1ncn(NC(=O)Cc2ccccc2)c1=O`, the EC50 was over 200 µM and the IC50 is over 200 µM.

Turning to `O=C1c2ccccc2C(=O)C1C(c1ccc([N+](=O)[O-])cc1)C1C(=O)c2ccccc2C1=O`, the EC50 is over 4.47 µM and the IC50 was over 4.47 µM.

As to `O=C(C[C@H](Cl)[C@H](NC(=O)OCc1ccccc1)C(=O)O)NO`, the result was inactive.

For `O=c1[nH]nc(NCc2ccccc2)c2nnn(Cc3ccccc3)c12`, the EC50 is over 200 µM and the IC50 was over 200 µM.

On to `CCN(CC)CCCCCCNc1cc(OC)cc2c(C)ccnc12`, for which the EC50 was over 603 µM and the IC50 was found to be 19.5 µM.

On to `COCC(=O)OC1CCn2c1nc1c2C(=O)C(C)=C(NC(C)=O)C1=O` (stereo not given), for which the EC50 is over 200 µM and the IC50 stood at 1.26 µM.

Turning to `C=CCOc1ccc(C2c3c([nH][nH]c3=O)CC(C)(O)C2C(=O)OC)cc1OC` (stereo not given), the EC50 was over 200 µM and the IC50 was over 200 µM.

Turning to `S=C(NNC1=NCCCCN1)Nc1ccc(Cl)cc1`, the EC50 is over 200 µM and the 50% inhibitory concentration (IC50) amounted to 18.6 µM.

Consider `CCCCOC(=Nc1ccccc1)N(c1ccccc1)c1ccccc1`, for which the EC50 was over 200 µM and the IC50 was 36.3 µM.

With `O=c1c2ccc(Cl)cc2oc2ccc(Cl)cc12`, the EC50 was over 26.9 µM and the concentration for half-maximal inhibition (IC50) was over 26.9 µM.

As for `CCOC(=O)[C@H]1Nc2c(cccc2[N+](=O)[O-])[C@H]2OCC[C@@H]12`, the EC50 is over 447 µM and the IC50 was over 447 µM.

Regarding `O=C(N/C(=C\c1ccc(Br)cc1)c1nc2ccccc2s1)c1ccccc1`, the EC50 was over 22.9 µM and the IC50 was over 22.9 µM.

With `S=C1N=C(Cl)/C(=C\c2ccccc2)N1`, the EC50 is over 200 µM and the IC50 is over 200 µM.

Regarding `COc1ccc(C(F)(F)F)cc1NC(=O)O/N=C(/Cl)C(C)C`, the EC50 is over 20 µM and the IC50 turned out to be 3.72 µM.

In the case of `CC1(CO)COC(=O)C(C)(C2(C)NC(C)(CO)COC2=O)N1` (stereo not given), the EC50 was over 794 µM and the IC50 was 28.2 µM.

In the case of `O=C1C2CC=CCC2C(=O)N1n1c(Cc2ccccc2)n[nH]c1=O` (stereo not given), the EC50 is over 200 µM and the IC50 is over 200 µM.

Take `Cc1nn(C)c(=O)[nH]c1=O`: the EC50 is over 1780 µM and the IC50 is over 1780 µM.

With `O=[N+]([O-])c1ccccc1NC1CCN(CCCC2(c3ccc(F)cc3)OCCO2)CC1`, the EC50 is over 200 µM and the IC50 is 12.9 µM.

As for `CC(C)c1cccc(C(C)C)c1NC(=O)C(=O)C1SC(=S)NC1=O` (stereo not given), the EC50 is over 692 µM and the IC50 was over 692 µM.

For the molecule `CN1CCc2sccc2C(c2ccccc2)O1` (stereo not given), the EC50 was over 708 µM and the IC50 came to 275 µM.

For `Cc1ccc(NC(=S)Nc2ccc(C)cn2)nc1`, the EC50 was over 200 µM and the IC50 was over 200 µM.
